ChEMBL document CHEMBL3734749, “Naturally occurring FANCFHes1 complex inhibitors from Wrightia religiosa” (Medchemcomm, 2015)
The source made the active and inactive calls. No cut-off for these calls is given here.

Key:
[1] = target: T1, Fanconi anemia group F protein/Transcription factor HES-1 (Homo sapiens, UniProt Q14469+Q9NPI8); test: (§1) Inhibition of Cy3-GST-tagged human recombinant full length FANCF/Cy3-tagged human full length HES1 (1 to 280 amino acid residues) interaction expressed in Escherichia coli JM109 after 1 hrs by microplate reader assay
T1 sequence (Q9NPI8 whole entry): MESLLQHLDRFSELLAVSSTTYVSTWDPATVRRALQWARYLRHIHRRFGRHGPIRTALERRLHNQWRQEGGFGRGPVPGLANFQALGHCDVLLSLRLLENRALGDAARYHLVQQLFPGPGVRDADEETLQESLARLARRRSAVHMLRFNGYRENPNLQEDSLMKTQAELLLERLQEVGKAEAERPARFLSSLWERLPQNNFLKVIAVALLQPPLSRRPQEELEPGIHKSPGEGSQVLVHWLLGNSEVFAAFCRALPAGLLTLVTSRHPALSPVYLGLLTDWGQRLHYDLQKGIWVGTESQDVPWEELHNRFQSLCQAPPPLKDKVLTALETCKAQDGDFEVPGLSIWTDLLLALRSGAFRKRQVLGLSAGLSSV
T1 sequence (Q14469 whole entry): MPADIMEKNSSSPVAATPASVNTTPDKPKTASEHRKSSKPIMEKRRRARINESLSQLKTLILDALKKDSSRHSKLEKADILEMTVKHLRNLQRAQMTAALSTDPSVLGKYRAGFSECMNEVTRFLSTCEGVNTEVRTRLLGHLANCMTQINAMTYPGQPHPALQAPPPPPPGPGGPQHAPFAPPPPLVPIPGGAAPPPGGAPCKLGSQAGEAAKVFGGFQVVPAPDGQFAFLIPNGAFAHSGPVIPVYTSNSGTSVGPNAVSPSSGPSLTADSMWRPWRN

[2] = target: T2, Fanconi anemia group F protein/Transcription factor HES-1 (Homo sapiens) (UniProt Q9NPI8+Q14469); test: as §1
[3] = Inhibition of Cy3-GST-tagged human recombinant full length FANCF/Cy3-tagged rat Hes1 (3 to 281 amino acid residues) interaction expressed in Escherichia coli JM109 at 50 uM after 1 hrs by microplate reader assay
[4] = target: T2, Fanconi anemia group F protein/Transcription factor HES-1 (Homo sapiens); test: Inhibition of Cy3-GST-tagged human recombinant full length FANCF/Cy3-tagged human full length HES1 (1 to 280 amino acid residues) interaction expressed in Escherichia coli JM109 at 10 uM after 1 hrs by microplate reader assay
[5] = Inhibition of GST-tagged recombinant mouse beta-catenin (128 to 683 amino acid residues)/human recombinant TCF4E (1 to 100 amino acid residues) complex formation expressed in Escherichia coli JM109 after 1 hrs by microplate reader assay
[6] = target: T3, Transcription factor HES-1 (Homo sapiens, UniProt Q14469); test: Inhibition of Cy3-tagged human recombinant full length HES1 (1 to 280 amino acid residues)/Cy3-GST-tagged human recombinant full length HES1 (1 to 280 amino acid residues) dimer formation expressed in Escherichia coli JM109 after 1 hr by microplate reader assay
T3 sequence (Q14469 whole entry): T1 sequence (Q14469 whole entry)

Bone marrow cell [7] = test: Reduction of colony formation in Fanconi C deficient mouse bone marrow cells at 50 uM after 10 to 14 days; type: functional, cell-based
[8] = Reduction of colony formation in wild type mouse bone marrow cells at 50 uM after 10 to 14 days; type: functional, Bone marrow cell; design: scale not given: the % may be the effect or the level left
Bone marrow cell [9] = test: Reduction of colony formation in Fanconi A deficient mouse bone marrow cells at 50 uM after 10 to 14 days; type: functional, cell-based

SMILES | IC50 [1] [µM] | inhibition [2] | inhibition [3] | inhibition [4] [%] | IC50 [5] [µM] | IC50 [6] [µM] | Activity (Bone marrow cell [7]) | Activity [8] [%] | Activity (Bone marrow cell [9])
C[C@@H]1O[C@@H](OC[C@H]2O[C@@H](Oc3c(-c4ccc(O)c(O)c4)oc4cc(O)cc(O)c4c3=O)[C@H](O)[C@@H](O)[C@H]2O)[C@H](O)[C@H](O)[C@H]1O | 35.8 | Dose-dependent effect | Active | 40 | > 100 | > 100 | – | – | –
C[C@@H]1O[C@@H](OC[C@H]2O[C@@H](Oc3c(-c4ccc(O[C@@H]5O[C@@H](C)[C@H](O)[C@@H](O)[C@H]5O)cc4)oc4cc(O)cc(O)c4c3=O)[C@H](O)[C@@H](O)[C@@H]2O)[C@H](O)[C@H](O)[C@H]1O | – | Dose-dependent effect | Active | – | – | – | – | – | –
C[C@@H]1O[C@@H](OC[C@H]2O[C@@H](Oc3c(-c4ccc(O[C@@H]5O[C@@H](C)[C@H](O)[C@@H](O)[C@H]5O)c(O)c4)oc4cc(O)cc(O)c4c3=O)[C@H](O)[C@@H](O)[C@@H]2O)[C@H](O)[C@H](O)[C@H]1O | 23.6 | Dose-dependent effect | Active | 40 | > 100 | 25.7 | inactive | 40 | Active
